ChEMBL document CHEMBL4311935, “Synthesis and antitumor activity of fluorouracil - oleanolic acid/ursolic acid/glycyrrhetinic acid conjugates” (Medchemcomm, 2019)
pIC50: −log10 of the molar value.

How the values were obtained:
A549 = assay: Cytotoxicity against human A549 cells assessed as cell growth inhibition after 48 hrs by MTT assay; assay type: functional, cell-based; details: A549, 48 h
Bel-7402 = assay: Cytotoxicity against human Bel7402 cells assessed as cell growth inhibition after 48 hrs by MTT assay; assay type: functional, cell-based; details: Bel-7402, 48 h
MCF7 = assay: Cytotoxicity against human MCF7 cells assessed as cell growth inhibition after 48 hrs by MTT assay; assay type: functional, cell-based; details: MCF7, 48 h
L02 = assay: Cytotoxicity against human LO2 cells assessed as cell growth inhibition after 48 hrs by MTT assay; assay type: cell-based; details: L02, 48 h
K562 = assay: Cytotoxicity against human K562 cells assessed as cell growth inhibition after 48 hrs by MTT assay; assay type: functional, cell-based; details: K562, 48 h
K562/Adr = assay: Cytotoxicity against human K562/ADR cells assessed as cell growth inhibition after 48 hrs by MTT assay; assay type: functional, cell-based
Bel7402/5-FU = assay: Cytotoxicity against human Bel7402/5-FU cells assessed as cell growth inhibition after 48 hrs by MTT assay; assay type: functional, cell-based
A549/TR = assay: Cytotoxicity against human A549/T cells assessed as cell growth inhibition after 48 hrs by MTT assay; assay type: functional, cell-based
NCI/ADR-RES = assay: Cytotoxicity against human MCF7/ADR cells assessed as cell growth inhibition after 48 hrs by MTT assay; assay type: functional, cell-based

C[C@H]1[C@H](C)CC[C@]2(C(=O)OCCCCCCCCn3cc(F)c(=O)n(CCCCCCCCOC(=O)[C@@]45CC[C@]6(C)C(=CC[C@@H]7[C@@]8(C)CC[C@H](O)C(C)(C)[C@@H]8CC[C@]76C)[C@@H]4C[C@@H](C)[C@H](C)C5)c3=O)CC[C@]3(C)C(=CC[C@@H]4[C@@]5(C)CC[C@H](O)C(C)(C)[C@@H]5CC[C@]43C)[C@H]12
pIC50 (A549): < 3.70
pIC50 (Bel-7402): < 3.70
pIC50 (MCF7): < 3.70
pIC50 (L02): < 3.70
pIC50 (K562): < 3.70

C[C@H]1[C@H](C)CC[C@]2(C(=O)O)CC[C@]3(C)C(=CC[C@@H]4[C@@]5(C)CC[C@H](O)C(C)(C)[C@@H]5CC[C@]43C)[C@H]12 [URSOLIC ACID]
pIC50 (A549): 4.11
pIC50 (Bel-7402): 4.19
pIC50 (MCF7): 4.15
pIC50 (L02): 4.23
pIC50 (K562): 4.39
pIC50 (K562/Adr): 4.42

CC1(C)CC[C@]2(C(=O)O)CC[C@]3(C)C(=CC[C@@H]4[C@@]5(C)CC[C@H](O)C(C)(C)[C@@H]5CC[C@]43C)[C@@H]2C1 [OLEANOLIC_ACID]
pIC50 (A549): 4.38
pIC50 (Bel7402/5-FU): < 3.70
pIC50 (Bel-7402): 4.22
pIC50 (MCF7): < 3.70
pIC50 (L02): < 3.70
pIC50 (A549/TR): < 3.70
pIC50 (K562): < 3.70
pIC50 (NCI/ADR-RES): < 3.70
pIC50 (K562/Adr): < 3.70

CC1(C)[C@@H](O)CC[C@]2(C)[C@H]3C(=O)C=C4[C@@H]5C[C@@](C)(C(=O)OCCCCCCn6cc(F)c(=O)n(CCCCCCOC(=O)[C@@]7(C)CC[C@]8(C)CC[C@]9(C)C(=CC(=O)[C@@H]%10[C@@]%11(C)CC[C@H](O)C(C)(C)[C@@H]%11CC[C@]%109C)[C@@H]8C7)c6=O)CC[C@]5(C)CC[C@@]4(C)[C@]3(C)CC[C@@H]12
pIC50 (A549): < 3.70
pIC50 (Bel-7402): < 3.70
pIC50 (MCF7): < 3.70
pIC50 (L02): < 3.70
pIC50 (K562): < 3.70

CC1(C)[C@@H](O)CC[C@]2(C)[C@H]3C(=O)C=C4[C@@H]5C[C@@](C)(C(=O)O)CC[C@]5(C)CC[C@@]4(C)[C@]3(C)CC[C@@H]12 [ENOXOLONE]
pIC50 (A549): < 3.70
pIC50 (Bel7402/5-FU): 4.16
pIC50 (Bel-7402): < 3.70
pIC50 (MCF7): < 3.70
pIC50 (L02): < 3.70
pIC50 (A549/TR): 4.00
pIC50 (K562): < 3.70
pIC50 (NCI/ADR-RES): 4.13
pIC50 (K562/Adr): 4.06

CC1(C)CC[C@]2(C(=O)OCCCCCCn3cc(F)c(=O)n(CCCCCCOC(=O)[C@]45CCC(C)(C)C[C@H]4C4=CC[C@@H]6[C@@]7(C)CC[C@H](O)C(C)(C)[C@@H]7CC[C@@]6(C)[C@]4(C)CC5)c3=O)CC[C@]3(C)C(=CC[C@@H]4[C@@]5(C)CC[C@H](O)C(C)(C)[C@@H]5CC[C@]43C)[C@@H]2C1
pIC50 (A549): < 3.70
pIC50 (Bel-7402): < 3.70
pIC50 (MCF7): < 3.70
pIC50 (L02): < 3.70
pIC50 (K562): < 3.70

C[C@H]1[C@H](C)CC[C@]2(C(=O)OCCCCCCn3cc(F)c(=O)n(CCCCCCOC(=O)[C@@]45CC[C@]6(C)C(=CC[C@@H]7[C@@]8(C)CC[C@H](O)C(C)(C)[C@@H]8CC[C@]76C)[C@@H]4C[C@@H](C)[C@H](C)C5)c3=O)CC[C@]3(C)C(=CC[C@@H]4[C@@]5(C)CC[C@H](O)C(C)(C)[C@@H]5CC[C@]43C)[C@H]12
pIC50 (A549): < 3.70
pIC50 (Bel-7402): < 3.70
pIC50 (MCF7): < 3.70
pIC50 (L02): < 3.70
pIC50 (K562): < 3.70

C[C@H]1[C@H](C)CC[C@]2(C(=O)OCCCCCCn3cc(F)c(=O)[nH]c3=O)CC[C@]3(C)C(=CC[C@@H]4[C@@]5(C)CC[C@H](O)C(C)(C)[C@@H]5CC[C@]43C)[C@H]12
pIC50 (A549): 4.76
pIC50 (Bel-7402): 4.49
pIC50 (MCF7): 4.72
pIC50 (L02): 4.65
pIC50 (K562): 4.83

C[C@H]1[C@H](C)CC[C@]2(C(=O)OCCCCCCCCn3cc(F)c(=O)[nH]c3=O)CC[C@]3(C)C(=CC[C@@H]4[C@@]5(C)CC[C@H](O)C(C)(C)[C@@H]5CC[C@]43C)[C@H]12
pIC50 (A549): < 3.70
pIC50 (Bel-7402): < 3.70
pIC50 (MCF7): < 3.70
pIC50 (L02): < 3.70
pIC50 (K562): < 3.70

CC1(C)CC[C@]2(C(=O)OCCCCCCn3cc(F)c(=O)[nH]c3=O)CC[C@]3(C)C(=CC[C@@H]4[C@@]5(C)CC[C@H](O)C(C)(C)[C@@H]5CC[C@]43C)[C@@H]2C1
pIC50 (A549): 4.63
pIC50 (Bel-7402): 4.60
pIC50 (MCF7): 4.61
pIC50 (L02): 4.33
pIC50 (K562): 4.83

CC1(C)[C@@H](O)CC[C@]2(C)[C@H]3C(=O)C=C4[C@@H]5C[C@@](C)(C(=O)OCCCCCCCCn6cc(F)c(=O)n(CCCCCCCCOC(=O)[C@@]7(C)CC[C@]8(C)CC[C@]9(C)C(=CC(=O)[C@@H]%10[C@@]%11(C)CC[C@H](O)C(C)(C)[C@@H]%11CC[C@]%109C)[C@@H]8C7)c6=O)CC[C@]5(C)CC[C@@]4(C)[C@]3(C)CC[C@@H]12
pIC50 (A549): < 3.70
pIC50 (Bel-7402): < 3.70
pIC50 (MCF7): < 3.70
pIC50 (L02): < 3.70
pIC50 (K562): < 3.70

CC1(C)[C@@H](O)CC[C@]2(C)[C@H]3C(=O)C=C4[C@@H]5C[C@@](C)(C(=O)OCCCCCCn6cc(F)c(=O)[nH]c6=O)CC[C@]5(C)CC[C@@]4(C)[C@]3(C)CC[C@@H]12
pIC50 (A549): 4.31
pIC50 (Bel-7402): 4.39
pIC50 (MCF7): 4.30
pIC50 (L02): 4.14
pIC50 (K562): 4.46

O=c1[nH]cc(F)c(=O)[nH]1 [FLUOROURACIL]
pIC50 (A549): 4.30
pIC50 (Bel7402/5-FU): 4.42
pIC50 (Bel-7402): 4.27
pIC50 (MCF7): 4.28
pIC50 (L02): < 3.70
pIC50 (A549/TR): 4.07
pIC50 (K562): 4.38
pIC50 (NCI/ADR-RES): 4.26
pIC50 (K562/Adr): 4.50

CC1(C)CC[C@]2(C(=O)OCCCCCCCCn3cc(F)c(=O)[nH]c3=O)CC[C@]3(C)C(=CC[C@@H]4[C@@]5(C)CC[C@H](O)C(C)(C)[C@@H]5CC[C@]43C)[C@@H]2C1
pIC50 (A549): 4.30
pIC50 (Bel7402/5-FU): 4.50
pIC50 (Bel-7402): 4.36
pIC50 (MCF7): 4.27
pIC50 (L02): < 3.70
pIC50 (A549/TR): 4.37
pIC50 (K562): 4.64
pIC50 (NCI/ADR-RES): 3.78
pIC50 (K562/Adr): < 3.70

CC1(C)CC[C@]2(C(=O)OCCCCCCCCn3cc(F)c(=O)n(CCCCCCCCOC(=O)[C@]45CCC(C)(C)C[C@H]4C4=CC[C@@H]6[C@@]7(C)CC[C@H](O)C(C)(C)[C@@H]7CC[C@@]6(C)[C@]4(C)CC5)c3=O)CC[C@]3(C)C(=CC[C@@H]4[C@@]5(C)CC[C@H](O)C(C)(C)[C@@H]5CC[C@]43C)[C@@H]2C1
pIC50 (A549): < 3.70
pIC50 (Bel-7402): < 3.70
pIC50 (MCF7): < 3.70
pIC50 (L02): < 3.70
pIC50 (K562): < 3.70
